Measured values taken from patent US7811817B2, “Establishment of a human embryonic stem cell line using mammalian cells” (Reliance Life Sciences Pvt. Ltd., priority 2005, dated 2010).

Experiments:
[1] = tested on: HepG2, a human hepatocarcinoma cell line; experiment: Exposure of HepG2 cells to carbon tetrachloride, enzyme release into supernatant (hepatotoxicity model); format: cell-based
[2] = tested on: mouse ES cell-derived hepatocytes; experiment: In vitro hepatotoxicity model using hepatocytes differentiated from mouse ES cells, enzyme release into supernatant; format: cell-based; settings: pretreatment 24 hr, 25 μM; 0.6% CCl4 for 180 minutes
Protocol: Hepatocytes were differentiated from mouse ES cells and exposed to carbon tetrachloride (0.6%) for 180 minutes in the absence and presence of N-acetylcysteine (NAC), an antioxidant (25 μM). Levels of the following enzymes were determined by biochemical methods: Panel A: SGOT; Panel B: SGPT; Panel C: ALP; and Panel D: LDH.
Mouse ES cells were differentiated into hepatocytes by the formation of EBs in a medium without LIF. After 4 days in suspension, 15-20 EBs were plated onto 35 mm culture dishes pre-coated with 1% matrigel (BD Biosciences, USA), and allowed to differentiate for 20-25 days. Concentration of growth factors, cytokines (e.g., bone morphogenetic proteins (BMP2 and BMP4), hepatocyte growth factor (HGF), acidic-fibroblast growth factor (aFGF), and basic-FGF (bFGF)) and corticosteroids (e.g., dexamethasone) were optimized for hepatic differentiation. The differentiated cells obtained were confirmed to be hepatocytes by checking the positive expression of hepatic markers by RT-PCR and immunocytochemistry. […]
The cell supernatant was used for the determination of SGPT, SGOT, ALP, and LDH levels, per the manufacturer's protocol. […] The samples were analyzed using a Konelab-20i autoanalyser (Thermo Clinical Lab Systems, Finland). The levels were expressed as units/Liter.

| SMILES | time of maximum release of SGOT, SGPT, ALP and LDH ([1]; 0.6% CCl4) [min] | SGOT, SGPT, ALP and LDH levels (enzyme release, hepatocyte damage) ([1]; 0.6% CCl4, exposure 30-240 minutes, cell supernatant) | effect on CCl4-induced increase in release of SGOT, SGPT, ALP and LDH [2] |
| --- | --- | --- | --- |
| ClC(Cl)(Cl)Cl [CCl4, carbon tetrachloride] | 180 | time-dependent increases | – |
| CC(=O)N[C@@H](CS)C(=O)O [N-acetylcysteine] | – | – | effectively blocked the increase in the release of these enzymes |
